Results reported in paper PMC5360062, “Comparative insights into the saccharification potentials of a relatively unexplored but robust Penicillium funiculosum glycoside hydrolase 7 cellobiohydrolase” (Biotechnology for Biofuels, 2017).

Target: T1, PfCBH1 (GH7 cellobiohydrolase 1)
T1 construct: natively purified enzyme from the secretome
Assay: inhibition of pNPL hydrolysis by purified enzyme, Michaelis-Menten/Lineweaver-Burk; IC50 […]
Format: biochemical, Talaromyces funiculosus (Penicillium funiculosum)

OC[C@H]1O[C@@H](O[C@H]2[C@H](O)[C@@H](O)C(O)O[C@@H]2CO)[C@H](O)[C@@H](O)[C@@H]1O (stereo partly shown) [G2, cellobiose]
Ki: 760 ± 54 µM
